Results taken from patent US11166924B2, “N-methyl-d-aspartate receptor allosteric modulators and methods for their use” (Qingdao Primedicine Pharmaceutical Company, Ltd., priority 2016, dated 2021).

Target: T1, GluN1/GluN2A NMDARs (Rattus norvegicus, UniProt P35439+Q00959)
T1 construct: expressed in transfected cells; host or cells: HEK293
Test: Whole-cell patch clamp recordings in HEK293 cells transfected with GluN1/GluN2A
Format: cell-based
Conditions: for Normalized Potentiation / EC50: Table 1; for Normalized Potentiation: positive modulation of GluN1/GluN2A NMDARs, concentration not given; for EC50: potentiation, read-out: EC50
Protocol: Cells were transfected with a combination of pcDNA3-CMV expression vectors, each of which expressed one of the rat recombinant (GluN2AWT, GluN1WT, GluN2BWT) subunits. The sequences of all plasmids were confirmed by automated DNA sequencing. Human Embryonic Kidney 293 (HEK293 cells) were cultured in Dulbecco's Modified Eagle's Medium (DMEM) (Invitrogen) supplemented with 10% fetal bovine serum (FBS). When HEK293 cells achieved 90% confluence, plasmids of either GluN1 & GluN2A or GluN1 & GluN2B were co-transfected into the cells using Lipofectamine 2000 (Invitrogen, 11668019) according to manufacturer's instructions. HEK293 cells were then maintained in the 37° C. incubator with […] and 5% CO2 for 48 hrs before being used in experiments. The transfection ratios for the NMDAR subunit combinations were all 1:1 (GluN1/GluN2A or GluN1/GluN2B).
Whole cell patch-clamp recordings were performed under voltage-clamp mode using an Axopatch 200B or 1D patch-clamp amplifier (Molecular Devices). Whole-cell currents were recorded at a holding potential of −60 mV unless indicated elsewhere, and signals were filtered at 2 kHz, digitized at 10 kHz (Digidata 1322A). Recording pipettes (3-5 MΩ) were filled with intracellular solution containing (mM): CsCl 140, HEPES 10, Mg-ATP 4, QX-314 5, pH 7.20; osmolarity, 290-295 mOsm. BAPTA (10 mM) was added in the intracellular solution (unless otherwise specified). The coverslips were continuously superfused with extracellular solution containing (mM): NaCl 140, KCl 5.4, HEPES 10, CaCl2 1.3, glucose 20, pH 7.4; osmolarity, 305-315 mOsm. NMDA-induced currents were applied by NMDA through perfusion fast-step (Warner Instruments). With perfusion fast-step system, NMDA application was achieved by using a two-square barrel glass tubing and depending on the age of the cultured neurons, CNQX (10 μM), TTX (0.5 μM) or BIC (10 μM) were added in the extracellular solution to minimize the activation of ionotropic glutamate receptors and voltage-gated sodium channels, respectively. All experiments were performed at room temperature. Recordings from at least six HEK293 cells/neurons were performed for all active compounds. Data were pooled among HEK293 cells or primary neurons and composite dose-response data were fitted by the equation Percentage Response=100×Relative Efficacy/[1+(EC50/Concentration)nH], where EC50 is the concentration of agonist that produces a half-maximal response, relative efficacy is the response at maximally effective concentration relative to the maximal response of glutamate, and nH is the Hill slope.
GluN1/GluN2A NMDAR subtypes are an attractive target for positive allosteric modulation. The present inventors employed in silico computational drug discovery methods to conduct a virtual screen of purchasable lead-like compounds from the ZINC database (Irwin, J., et al. Abstr Pap Am Chem Soc (2005) 230:U1009) and some synthetic compounds to identify potential GluN1/GluN2A-NMDAR modulators. The in silico methods included large-scale docking against the interstice interface of the GluN1/GluN2A heterodimer and consensus scoring to select compounds for empirical testing. Candidate compounds were further screened by using GluN1/GluN2A transiently transfected in human embryonic kidney (HEK293) cells and tested by whole-cell patch clamp recordings.
The inventors used transiently transfected HEK293 cells expressing either GluN1/GluN2A or GluN1/GluN2B NMDARs and tested by whole-cell voltage patch clamp recordings to see whether selected compounds were controlling the subtype selectivity profile of the drugs.
Whole-cell patch clamp recordings were performed to measure glutamate evoked currents with chloride-based pipette solutions at a holding potential of −60 mV.

T1 sequence (Q00959 23-1464, other chains not shown): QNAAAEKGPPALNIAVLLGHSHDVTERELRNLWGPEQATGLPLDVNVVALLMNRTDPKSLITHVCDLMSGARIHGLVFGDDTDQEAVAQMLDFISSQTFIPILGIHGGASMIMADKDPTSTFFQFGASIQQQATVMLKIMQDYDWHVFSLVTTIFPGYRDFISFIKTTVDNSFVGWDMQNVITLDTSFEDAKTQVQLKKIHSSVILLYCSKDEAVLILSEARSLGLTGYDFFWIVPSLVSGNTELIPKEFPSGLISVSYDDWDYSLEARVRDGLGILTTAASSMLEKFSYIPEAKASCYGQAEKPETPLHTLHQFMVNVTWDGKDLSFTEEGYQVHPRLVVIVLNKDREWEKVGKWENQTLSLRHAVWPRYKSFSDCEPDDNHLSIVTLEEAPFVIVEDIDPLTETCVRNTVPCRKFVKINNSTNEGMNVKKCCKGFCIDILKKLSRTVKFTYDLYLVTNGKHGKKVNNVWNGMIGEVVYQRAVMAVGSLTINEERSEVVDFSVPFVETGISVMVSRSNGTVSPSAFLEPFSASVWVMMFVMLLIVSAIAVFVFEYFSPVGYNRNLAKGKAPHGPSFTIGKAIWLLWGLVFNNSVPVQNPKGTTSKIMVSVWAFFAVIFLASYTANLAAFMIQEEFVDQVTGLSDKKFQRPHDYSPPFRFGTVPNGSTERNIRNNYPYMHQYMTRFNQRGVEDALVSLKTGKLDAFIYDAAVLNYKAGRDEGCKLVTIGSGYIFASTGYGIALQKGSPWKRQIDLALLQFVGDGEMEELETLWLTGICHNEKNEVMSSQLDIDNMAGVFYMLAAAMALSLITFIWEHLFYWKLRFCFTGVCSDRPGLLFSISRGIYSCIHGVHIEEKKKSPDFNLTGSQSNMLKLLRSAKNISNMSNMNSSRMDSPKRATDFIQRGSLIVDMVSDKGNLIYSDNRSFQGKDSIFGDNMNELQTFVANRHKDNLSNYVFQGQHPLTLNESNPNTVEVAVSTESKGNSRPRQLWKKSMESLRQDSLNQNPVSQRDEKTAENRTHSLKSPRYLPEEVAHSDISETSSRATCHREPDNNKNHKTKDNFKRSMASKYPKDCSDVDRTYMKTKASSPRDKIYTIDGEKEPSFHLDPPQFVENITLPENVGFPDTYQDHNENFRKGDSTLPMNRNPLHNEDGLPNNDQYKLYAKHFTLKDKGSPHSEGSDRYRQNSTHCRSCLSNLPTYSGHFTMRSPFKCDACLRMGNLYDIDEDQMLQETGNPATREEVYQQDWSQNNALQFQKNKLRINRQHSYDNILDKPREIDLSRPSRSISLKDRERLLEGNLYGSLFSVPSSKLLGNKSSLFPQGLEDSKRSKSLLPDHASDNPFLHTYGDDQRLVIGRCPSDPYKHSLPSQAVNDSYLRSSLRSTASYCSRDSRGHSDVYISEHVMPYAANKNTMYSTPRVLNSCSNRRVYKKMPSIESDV

With `CCOc1cc(Br)c(Br)c(/C=N/NC(=O)c2ccccc2OC)c1O` [Npam12, (E)-N′-(2,3-dibromo-5-ethoxy-6-hydroxybenzylidene)-2-methoxybenzohydrazide] the “Normalized Potentiation” value was 118.15 ± 35.54%.
`COc1cc(Br)c(Br)c(/C=N/NC(=O)c2cccnc2)c1O` [Npam39, (E)-N′-(2,3-dibromo-6-hydroxy-5-methoxybenzylidene)nicotinohydrazide] was tested, and the “Normalized Potentiation” value was 51.95 ± 11.29%.
With `CCOc1cc(Cl)c(Cl)c(/C=N/NC(=O)c2ccc(OC)cc2)c1O` [Npam48, (E)-N′-(2,3-dichloro-5-ethoxy-6-hydroxybenzylidene)-4-methoxybenzohydrazide] the “Normalized Potentiation” value was 441.05 ± 150.41% and the EC50 was 100 nM.
`COc1cc(Br)c(Br)c(/C=N/NC(=O)c2ccc(C(C)(C)C)cc2)c1O` [Npam35, (E)-4-(tert-butyl)-N′-(2,3-dibromo-6-hydroxy-5-methoxybenzylidene)benzohydrazide] was tested, and the “Normalized Potentiation” value was 512.24 ± 28.67% and the EC50 was 220 nM.
For `CCOc1cc(Cl)c(Cl)c(/C=N/NC(=O)c2cncc(Br)c2)c1O` [Npam06, (E)-5-bromo-N′-(2,3-dichloro-5-ethoxy-6-hydroxybenzylidene)nicotinohydrazide], the “Normalized Potentiation” value was 201.19 ± 14.63%.
`CCOc1cc(Br)cc(/C=N/NC(=O)c2ccc(C)cc2Cl)c1O` [Npam46, (E)-N′-(5-bromo-3-ethoxy-2-hydroxybenzylidene)-2-chloro-4-methylbenzohydrazide] was tested, and the “Normalized Potentiation” value was 466.57 ± 37.78% and the EC50 was 250 nM.
`COc1cc(/C=N/NC(=O)c2ccccc2Br)c(Br)c(Br)c1O` [Npam40, (E)-2-bromo-N′-(2,3-dibromo-4-hydroxy-5-methoxybenzylidene)benzohydrazide] was tested, and the “Normalized Potentiation” value was 2.51 ± 3.79%.
In the case of `CCOc1cc(Cl)cc(/C=N/NC(=O)c2ccccc2Br)c1O` [Npam18, (E)-2-bromo-N′-(5-chloro-3-ethoxy-2-hydroxybenzylidene)benzohydrazide], the “Normalized Potentiation” value is reported as 213.58 ± 43.58%.
`O=C(N/N=C/c1cccc(O)c1O)c1ccc(Cl)cc1Cl` [Npam36, (E)-2,4-dichloro-N′-(2,3-dihydroxybenzylidene)benzohydrazide] was tested, and the “Normalized Potentiation” value was 4.02 ± 4.79%.
For `CCOc1cc(Cl)c(Cl)c(/C=N/NC(=O)c2ccccc2OC)c1O` [Npam53, (E)-N′-(2,3-dichloro-5-ethoxy-6-hydroxybenzylidene)-2-methoxybenzohydrazide], the “Normalized Potentiation” value was 110.23 ± 4.70%.
`COc1cc(Br)c(Br)c(/C=N/NC(=O)c2ccc(Cl)cc2)c1O` [Npam13, (E)-4-chloro-N′-(2,3-dibromo-6-hydroxy-5-methoxybenzylidene)benzohydrazide] was tested, and the “Normalized Potentiation” value was 195.38 ± 40.11%.
In the case of `CCOc1cc(Cl)c(Cl)c(/C=N/NC(=O)c2cccc(Br)c2C)c1O` [Npam50, 3-bromo-N′-[(1E)-(2,3-dichloro-5-ethoxy-6-hydroxyphenyl)methylidene]-2-methylbenzohydrazide], the “Normalized Potentiation” value is reported as 441.11 ± 36.50% and the EC50 is reported as 250 nM.
For `CCOc1cc(Cl)c(Cl)c(/C=N/NC(=O)c2cccc(Br)c2C)c1OC` [Npam51, 3-bromo-N′-[(1E)-(2,3-dichloro-5-ethoxy-6-methoxyphenyl)methylidene]-2-methylbenzohydrazide], the “Normalized Potentiation” value was 33.37 ± 6.39%.
For `COc1cc(Br)cc(/C=N/NC(=O)c2cccc(Br)c2)c1O` [Npam47, (E)-3-bromo-N′-(5-bromo-2-hydroxy-3-methoxybenzylidene)benzohydrazide], the “Normalized Potentiation” value was 224.79 ± 24.78%.
For `CCOc1cc(Br)cc(/C=N/NC(=O)c2cccc(Br)c2)c1O` [Npam38, (E)-3-bromo-N′-(5-bromo-3-ethoxy-2-hydroxybenzylidene)benzohydrazide], the “Normalized Potentiation” value was 426.44 ± 87.65% and the EC50 was 190 nM.
For `CCOc1cc(Cl)c(Cl)c(/C=N/NCc2ccccc2)c1O` [Npam57, 2-[(1E)-(2-benzylhydrazin-1-ylidene)methyl]-3,4-dichloro-6-ethoxyphenol], the “Normalized Potentiation” value was 105.85 ± 12.62%.
In the case of `COc1cc(Br)c(Br)c(/C=N/NC(=O)c2cccc(F)c2)c1O` [Npam37, (E)-N′-(2,3-dibromo-6-hydroxy-5-methoxybenzylidene)-3-fluorobenzohydrazide], the “Normalized Potentiation” value is reported as 435.94 ± 156.01%.
With `CCOc1cc(Cl)cc(/C=N/NC(=O)c2ccccc2Br)c1O` [Npam80, (E)-2-bromo-N′-(5-chloro-3-ethoxy-2-hydroxybenzylidene)benzohydrazide] the “Normalized Potentiation” value was 213.60 ± 29.34%.
For `CCOc1cc(Cl)c(Cl)c(/C=N/NC(=O)c2ccc(C)cc2Cl)c1O` [Npam44, (E)-2-chloro-N′-(2,3-dichloro-5-ethoxy-6-hydroxybenzylidene)-4-methylbenzohydrazide], the “Normalized Potentiation” value was 443.25 ± 83.42% and the EC50 was 150 nM.
With `CCOc1cc(Cl)c(Cl)c(/C=N/NC(=O)NC(=O)COc2c(C)ccc(C)c2C)c1O` [Npam08, (E)-2-(2,3-dichloro-5-ethoxy-6-hydroxybenzylidene)-N-(2-(2,3,6-trimethylphenoxy)acetyl)hydrazinecarboxamide] the “Normalized Potentiation” value was 362.76 ± 38.44%.
`CCOc1cccc(/C=N/NC(=O)c2cccc(Cl)c2C)c1O` [Npam07, (E)-3-chloro-N′-(3-ethoxy-2-hydroxybenzylidene)-2-methylbenzohydrazide] was tested, and the “Normalized Potentiation” value was 103.77 ± 11.00%.
In the case of `COc1cc(Cl)cc(/C=N/NC(=O)c2ccccc2Br)c1O` [Npam20, (E)-2-bromo-N′-(5-chloro-2-hydroxy-3-methoxybenzylidene)benzohydrazide], the “Normalized Potentiation” value is reported as 131.85 ± 23.20%.
`CCOc1cc(Br)cc(/C=N/NC(=O)c2ccccc2Br)c1O` [Npam58, (E)-2-bromo-N′-(5-bromo-3-ethoxy-2-hydroxybenzylidene)benzohydrazide] was tested, and the “Selectivity for GluN1/GluN2A versus GluN1/GluN2B NMDARs” value (FIG. 2, HEK293 cells expressing GluN1/GluN2A and GluN1/GluN2B) was “selective for GluN1/GluN2A NMDARs”, the “Normalized Potentiation” value was 163.60 ± 13.94% and the EC50 was 800 nM.
For `COc1cc(Br)c(Br)c(/C=N/NC(=O)c2ccccc2Br)c1O` [Npam05, (E)-2-bromo-N′-(2,3-dibromo-6-hydroxy-5-methoxybenzylidene)benzohydrazide], the “Normalized Potentiation” value was 196.54 ± 21.20%.
`COc1cc(Br)c(Br)c(/C=N/NC(=O)c2ccccc2)c1O` [Npam59, (E)-N′-(2,3-dibromo-6-hydroxy-5-methoxybenzylidene)benzohydrazide] was tested, and the “Normalized Potentiation” value was 441.71 ± 65.24% and the EC50 was 90 nM.
For `CCOc1cc(Cl)c(Cl)c(/C=N/N(C)C(=O)c2ccccc2)c1O` [Npam52, N′-[(1E)-(2,3-dichloro-5-ethoxy-6-hydroxyphenyl)methylidene]-N-methylbenzohydrazide], the “Normalized Potentiation” value was 175.53 ± 25.9%.
For `C=CCc1cc(/C=N/NC(=O)c2ccccc2Br)c(O)c(OC)c1` [Npam03, (E)-N′-(5-allyl-2-hydroxy-3-methoxybenzylidene)-2-bromobenzohydrazide], the “Normalized Potentiation” value was 97.62 ± 6.03%.
For `CCOc1cc(Br)cc(/C=N/NC(=O)c2ccc3c(c2)OCCO3)c1O` [Npam23, (E)-N′-(5-bromo-3-ethoxy-2-hydroxybenzylidene)-2,3-dihydrobenzo[b][1,4]dioxine-6-carbohydrazide], the “Normalized Potentiation” value was 87.00 ± 6.48%.
With `CCOc1cc(Cl)c(Cl)c(/C=N/NC(=O)c2cc(Cl)ccc2Br)c1O` [Npam49, 2-bromo-5-chloro-N′-[(1E)-(2,3-dichloro-5-ethoxy-6-hydroxyphenyl)methylidene]benzohydrazide] the “Normalized Potentiation” value was 530.06 ± 114.00% and the EC50 was 190 nM.
With `CCOc1cc(Br)c(Br)c(/C=N/NC(=O)c2cccc(Cl)c2C)c1O` [Npam10, 3-chloro-N′-[(1E)-(2,3-dibromo-5-ethoxy-6-hydroxyphenyl)methylidene]-2-methylbenzohydrazide] the “Normalized Potentiation” value was 206.28 ± 33.62%.
